Patent publication US9770025B2, “Fungicidal compositions” (Syngenta Participations AG, priority 2013, dated 2017)

Legend:
Format in all cases: cell-based
Fusarium culmorum = Fusarium culmorum liquid culture growth inhibition; conditions: in PDB
Procedure: (§1) Liquid Culture Tests in Well Plates
(§2) Mycelia fragments or conidia suspensions of a fungus, prepared either freshly from liquid cultures of the fungus or from cryogenic storage, were directly mixed into nutrient broth. DMSO solutions of the test compound (max. 10 mg/ml) was diluted with 0.025% Tween20 by factor 50 and 10 μl of this solution was pipetted into a microtiter plate (96-well format). The nutrient broth containing the fungal spores/mycelia fragments was then added to give an end concentration of the tested compound. The test plates were incubated in the dark at 24° C. and 96% rh. The inhibition of fungal growth was determined photometrically and visually after 2-4 days, depending on the pathosystem, and percent antifungal activity relative to the untreated check was calculated.
Fusarium culmorum/Liquid Culture:
(§3) Conidia of the fungus from cryogenic storage were directly mixed into nutrient broth (PDB potato dextrose broth). After placing a (DMSO) solution of test compound into a microtiter plate (96-well format), the nutrient broth containing the fungal spores was added.

[1] = test system: Botryotinia fuckeliana (Botrytis cinerea); test: Botryotinia fuckeliana (Botrytis cinerea) liquid culture growth inhibition; conditions: in Vogels Broth
Procedure: as §1, §2
Botryotinia fuckeliana (Botrytis cinerea)/Liquid Culture:
Conidia of the fungus from cryogenic storage were directly mixed into nutrient broth (Vogels broth). After placing a (DMSO) solution of test compound into a microtiter plate (96-well format), the nutrient broth containing the fungal spores was added.

Alternaria solani = Alternaria solani liquid culture growth inhibition; conditions: for (B4) Inhibition (%) / (B2) Inhibition (%) / (B5) Inhibition (%): PDB; for (B4) Inhibition (%): Table 11; for (B2) Inhibition (%): Table 9; for (B5) Inhibition (%): Table 13
Procedure: as §1
as §2, with “The nutrient broth containing the fungal spores/mycelia fragments was then added to give an end concentration of the tested compound.” left out
Alternaria solanil/Liquid Culture:
as §3

[2] = test system: Monographella nivalis (Microdochium nivale); test: Monographella nivalis (Microdochium nivale) liquid culture growth inhibition
Procedure: as §1, §2
Monographella nivalis (Microdochium nivale)/Liquid Culture:
as §3

Gaeumannomyces graminis = Gaeumannomyces graminis liquid culture growth inhibition; conditions: in PDB
Procedure: as §1, §2
Gaeumannomyces graminis/Liquid Culture:
Mycelial fragments of the fungus from cryogenic storage were directly mixed into nutrient broth (PDB potato dextrose broth). After placing a (DMSO) solution of test compound into a microtiter plate (96-well format), the nutrient broth containing the fungal spores was added.

[3] = test system: Mycosphaerella graminicola (Septoria tritici); test: Mycosphaerella graminicola (Septoria tritici) liquid culture growth inhibition; conditions: for (B4) Inhibition (%) / (B5) Inhibition (%): PDB; for (B4) Inhibition (%): Table 12; for (B5) Inhibition (%): Table 14
Procedure: as §1, §2
Mycosphaerella graminicola (Septoria tritici)/Liquid Culture:
as §3

Pythium ultimum = Pythium ultimum (seedling damping off) liquid culture growth inhibition; conditions: 0.0625 ppm; PDB; Table 10
Procedure: as §1, §2
Pythium ultimum Seedling Damping Off)/Liquid Culture:
Mycelia fragments and oospores of a newly grown liquid culture of the fungus were directly mixed into nutrient broth (PDB potato dextrose broth). After placing a (DMSO) solution of the test compounds into a microtiter plate (96-well format), the nutrient broth containing the fungal mycelia/spore mixture was added.

[4] = Zymoseptoria tritici, read-out: (B10) Inhibition (%)
[5] = Monographella nivalis, read-out: (B10) Inhibition (%)

CNC(=O)C(OC)c1ccccc1COc1cc(C)ccc1C (stereo not drawn) [(B11), mandestrobin, reference compound]
(B11) Inhibition (%) (Fusarium culmorum; 0.1000 ppm): 0% | (B11) Inhibition (%) (Fusarium culmorum; 0.2000 ppm): 11% | (B11) Inhibition (%) ([1]; 0.0016 ppm): 5% | (B11) Inhibition (%) ([1]; 0.0250 ppm): 0% | (B11) Inhibition (%) ([1]; 0.0500 ppm): 8% | (B11) Inhibition (%) (Alternaria solani; 0.0008 ppm, in PDB): 0% | (B11) Inhibition (%) (Alternaria solani; 0.0016 ppm, in PDB): 3% | (B11) Inhibition (%) (Alternaria solani; 0.0031 ppm, in PDB): 0% | (B11) Inhibition (%) (Alternaria solani; 0.0063 ppm, in PDB): 12% | (B11) Inhibition (%) ([2]; 0.0250 ppm, in PDB): 0% | (B11) Inhibition (%) (Gaeumannomyces graminis; 0.0500 ppm): 17% | (B11) Inhibition (%) (Gaeumannomyces graminis; 0.1000 ppm): 53%

CCCCc1c(C)c2ccc(OCc3ccccc3/C(=C\OC)C(=O)OC)cc2oc1=O [(B10), coumoxystrobin, reference compound]
inhibition at 0.0016 ppm [3, 4]: 5% | inhibition at 0.0031 ppm [3, 4]: 13% | inhibition at 0.0063 ppm [3, 4]: 31% | inhibition at 0.05 ppm (Fusarium culmorum; Fusarium culmorum, 0.0500 ppm, read-out: (B10) Inhibition (%)): 12% | inhibition at 0.1 ppm (Fusarium culmorum; Fusarium culmorum, 0.1000 ppm, read-out: (B10) Inhibition (%)): 8% | inhibition at 0.2 ppm (Fusarium culmorum; Fusarium culmorum, 0.2000 ppm, read-out: (B10) Inhibition (%)): 11% | inhibition at 0.0008 ppm [2, 5]: 46% | inhibition at 0.0016 ppm [2, 5]: 81%

CC1CC(C)(C)c2c(F)ccc(NC(=O)c3cn(C)nc3C(F)F)c21 (stereo not drawn) [(B9)]
inhibition at 0.0039 ppm ([3]; Zymoseptoria tritici, 0.0039 ppm, in PDB, read-out: (B9) Inhibition (%)): 0% | inhibition at 0.0156 ppm ([3]; Zymoseptoria tritici, 0.0156 ppm, in PDB, read-out: (B9) Inhibition (%)): 0% | inhibition at 0.0313 ppm ([3]; Zymoseptoria tritici, 0.0313 ppm, in PDB, read-out: (B9) Inhibition (%)): 9% | inhibition at 0.0625 ppm ([3]; Zymoseptoria tritici, 0.0625 ppm, in PDB, read-out: (B9) Inhibition (%)): 7% | inhibition at 0.0039 ppm ([1]; Botrytis cinerea, 0.0039 ppm, read-out: (B9) Inhibition (%)): 14% | inhibition at 0.0078 ppm ([1]; Botrytis cinerea, 0.0078 ppm, read-out: (B9) Inhibition (%)): 19% | inhibition at 0.0156 ppm ([1]; Botrytis cinerea, 0.0156 ppm, read-out: (B9) Inhibition (%)): 31% | inhibition at 0.0313 ppm ([1]; Botrytis cinerea, 0.0313 ppm, read-out: (B9) Inhibition (%)): 52% | inhibition at 0.0078 ppm (Alternaria solani; Alternaria solani, 0.0078 ppm, in PDB, read-out: (B9) Inhibition (%)): 0% | inhibition at 0.0156 ppm (Alternaria solani; Alternaria solani, 0.0156 ppm, in PDB, read-out: (B9) Inhibition (%)): 11% | inhibition at 0.0313 ppm (Alternaria solani; Alternaria solani, 0.0313 ppm, in PDB, read-out: (B9) Inhibition (%)): 5% | inhibition at 0.0625 ppm (Alternaria solani; Alternaria solani, 0.0625 ppm, in PDB, read-out: (B9) Inhibition (%)): 22% | inhibition at 0.125 ppm ([2]; Monographella nivalis, 0.1250 ppm, in PDB, read-out: (B9) Inhibition (%)): 0% | inhibition at 0.5 ppm ([2]; Monographella nivalis, 0.5000 ppm, in PDB, read-out: (B9) Inhibition (%)): 0% | inhibition at 1 ppm ([2]; Monographella nivalis, 1.0000 ppm, in PDB, read-out: (B9) Inhibition (%)): 10%

CC(=O)Oc1c(C)c(C)nc2c(F)cc(C(C)(C)C)cc12 [(B12), tebufloquin, reference compound]
(B12) Inhibition (%) ([1]; 0.0313 ppm): 5% | (B12) Inhibition (%) ([1]; 0.1250 ppm): 0% | (B12) Inhibition (%) (Alternaria solani; 0.0156 ppm, in PDB): 0% | (B12) Inhibition (%) (Alternaria solani; 0.0313 ppm, in PDB): 1% | (B12) Inhibition (%) ([2]; 0.2500 ppm, in PDB): 7% | (B12) Inhibition (%) ([2]; 0.5000 ppm, in PDB): 60%

Cc1cc(C(F)(F)F)nn1CC(=O)N1CCC(c2nc(C3=NOC(c4c(F)cccc4F)C3)cs2)CC1 (stereo not drawn) [(B4), oxathiapiprolin]
(B4) Inhibition (%) ([3]; 0.0313 ppm): 8% | (B4) Inhibition (%) ([3]; 0.0625 ppm): 4% | (B4) Inhibition (%) (Pythium ultimum): 61% | (B4) Inhibition (%) (Alternaria solani; 0.0039 ppm): 0% | (B4) Inhibition (%) (Alternaria solani; 0.0078 ppm): 4% | (B4) Inhibition (%) (Alternaria solani; 0.0156 ppm): 0% | (B4) Inhibition (%) (Alternaria solani; 0.0313 ppm): 0%

C=CCSC(=O)n1c(N)c(-c2ccccc2C)c(=O)n1C(C)C [(B2), fenpyrazamine]
(B2) Inhibition (%) (Alternaria solani; 0.0313 ppm): 0% | (B2) Inhibition (%) (Alternaria solani; 0.0625 ppm): 1%

Cc1ccc(C(=O)NC[C@@H](NC(=O)OCC(F)(F)F)C(C)C)cc1 [(B5), tolprocarb]
(B5) Inhibition (%) ([3]; 0.0391 ppm): 7% | (B5) Inhibition (%) ([3]; 0.0781 ppm): 1% | (B5) Inhibition (%) ([3]; 0.1563 ppm): 4% | (B5) Inhibition (%) ([3]; 0.6250 ppm): 1% | (B5) Inhibition (%) (Alternaria solani; 0.0391 ppm): 0% | (B5) Inhibition (%) (Alternaria solani; 0.0781 ppm): 0% | (B5) Inhibition (%) (Alternaria solani; 0.3125 ppm): 0%

CO/C=C(/C(=O)OC)c1ccccc1COc1ccc(C(F)(F)F)cc1Cl [(B6), flufenoxystrobin, reference compound]
(B6) Inhibition (%) ([3]; 0.0031 ppm, in PDB): 17% | (B6) Inhibition (%) ([3]; 0.0063 ppm, in PDB): 23% | (B6) Inhibition (%) ([3]; 0.0125 ppm, in PDB): 33% | (B6) Inhibition (%) (Fusarium culmorum; 0.0500 ppm): 5% | (B6) Inhibition (%) (Fusarium culmorum; 0.1000 ppm): 3% | (B6) Inhibition (%) (Fusarium culmorum; 0.2000 ppm): 12% | (B6) Inhibition (%) ([1]; 0.0063 ppm): 17% | (B6) Inhibition (%) ([1]; 0.0125 ppm): 23% | (B6) Inhibition (%) ([1]; 0.0250 ppm): 33% | (B6) Inhibition (%) (Alternaria solani; 0.0016 ppm, in PDB): 6% | (B6) Inhibition (%) (Alternaria solani; 0.0063 ppm, in PDB): 1% | (B6) Inhibition (%) ([2]; 0.0008 ppm, in PDB): 23% | (B6) Inhibition (%) ([2]; 0.0016 ppm, in PDB): 51%

COC(=O)N(OC)c1ccccc1COc1nc(Cl)c(Cl)cc1Cl [(B13), triclopyricarb, reference compound]
(B13) Inhibition (%) (Fusarium culmorum; 0.0500 ppm): 11% | (B13) Inhibition (%) (Fusarium culmorum; 0.1000 ppm): 10% | (B13) Inhibition (%) (Fusarium culmorum; 0.2000 ppm): 11% | (B13) Inhibition (%) ([1]; (B13) triclopyricarb alone at 0.0125 ppm): 8% | (B13) Inhibition (%) ([1]; (B13) triclopyricarb alone at 0.0250 ppm): 18% | (B13) Inhibition (%) ([2]; (B13) triclopyricarb alone at 0.0016 ppm, in PDB): 23% | (B13) Inhibition (%) ([2]; (B13) triclopyricarb alone at 0.0031 ppm, in PDB): 51%

CCN(C)/C=N/c1cc(C)c(Oc2nc(Cc3ccc(Cl)cc3)ns2)cc1C [(B14), N′-[4-[[3-[(4-chlorophenyl)methyl]-1,2,4-thiadiazol-5-yl]oxy]-2,5-dimethylphenyl]-N-ethyl-N-methyl-methanimidamide, reference compound]
inhibition at 0.25 ppm ([2]; Monographella nivalis, (B14) compound of formula IV alone at 0.2500 ppm, in PDB): 40%
